target: PI3Kα E545K (Homo sapiens, UniProt P42336, E545K); experiment: PI3Kα E545K mutant in vitro cell based assay, MCF-7 cells; settings: MCF-7 cell line, 0% FBS, 3 hours treatment
In short: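 MCF-7 cells (PI3Kα E545K) in serum-free MEM with 1 μg/mL insulin were treated 3 h with 10-point 1:3 dilutions in 0.3% DMSO. Lysates were read by SureFire AlphaLisa. IC50 was fitted by 4-parameter logistic to % inhibition relative to DMSO (max) and 1 μM GDC-0032 (min), duplicates averaged.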

PI3Kα E545K, sequence (P42336 whole entry E545K): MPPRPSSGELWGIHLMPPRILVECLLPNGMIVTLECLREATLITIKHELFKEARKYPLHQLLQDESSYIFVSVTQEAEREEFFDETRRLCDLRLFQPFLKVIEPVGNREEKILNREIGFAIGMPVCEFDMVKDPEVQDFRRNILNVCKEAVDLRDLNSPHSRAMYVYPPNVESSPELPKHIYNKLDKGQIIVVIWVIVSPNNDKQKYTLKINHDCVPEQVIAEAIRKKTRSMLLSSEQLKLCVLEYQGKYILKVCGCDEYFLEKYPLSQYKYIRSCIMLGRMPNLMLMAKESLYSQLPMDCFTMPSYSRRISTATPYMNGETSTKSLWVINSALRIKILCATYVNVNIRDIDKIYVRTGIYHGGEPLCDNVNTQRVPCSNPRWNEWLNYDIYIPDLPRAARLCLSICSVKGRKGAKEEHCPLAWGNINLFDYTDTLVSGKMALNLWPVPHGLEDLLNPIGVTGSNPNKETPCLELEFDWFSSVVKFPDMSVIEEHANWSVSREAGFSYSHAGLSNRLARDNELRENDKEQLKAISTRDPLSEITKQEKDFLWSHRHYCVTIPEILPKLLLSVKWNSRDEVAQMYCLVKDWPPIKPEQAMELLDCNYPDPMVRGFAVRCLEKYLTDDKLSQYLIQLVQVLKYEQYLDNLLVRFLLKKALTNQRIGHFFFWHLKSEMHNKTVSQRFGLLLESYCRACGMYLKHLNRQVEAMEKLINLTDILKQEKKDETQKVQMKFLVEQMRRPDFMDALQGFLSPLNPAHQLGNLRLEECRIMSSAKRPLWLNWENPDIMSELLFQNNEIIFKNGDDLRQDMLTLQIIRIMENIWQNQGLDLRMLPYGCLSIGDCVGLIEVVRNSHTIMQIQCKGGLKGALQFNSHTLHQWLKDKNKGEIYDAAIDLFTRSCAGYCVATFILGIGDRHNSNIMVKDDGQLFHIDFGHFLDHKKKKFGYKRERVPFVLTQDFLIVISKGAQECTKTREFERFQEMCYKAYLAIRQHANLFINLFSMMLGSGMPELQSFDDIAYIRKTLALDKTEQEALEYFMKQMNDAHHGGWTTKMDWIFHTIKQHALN
PI3Kα E545K, sequence (P27986 whole entry partner): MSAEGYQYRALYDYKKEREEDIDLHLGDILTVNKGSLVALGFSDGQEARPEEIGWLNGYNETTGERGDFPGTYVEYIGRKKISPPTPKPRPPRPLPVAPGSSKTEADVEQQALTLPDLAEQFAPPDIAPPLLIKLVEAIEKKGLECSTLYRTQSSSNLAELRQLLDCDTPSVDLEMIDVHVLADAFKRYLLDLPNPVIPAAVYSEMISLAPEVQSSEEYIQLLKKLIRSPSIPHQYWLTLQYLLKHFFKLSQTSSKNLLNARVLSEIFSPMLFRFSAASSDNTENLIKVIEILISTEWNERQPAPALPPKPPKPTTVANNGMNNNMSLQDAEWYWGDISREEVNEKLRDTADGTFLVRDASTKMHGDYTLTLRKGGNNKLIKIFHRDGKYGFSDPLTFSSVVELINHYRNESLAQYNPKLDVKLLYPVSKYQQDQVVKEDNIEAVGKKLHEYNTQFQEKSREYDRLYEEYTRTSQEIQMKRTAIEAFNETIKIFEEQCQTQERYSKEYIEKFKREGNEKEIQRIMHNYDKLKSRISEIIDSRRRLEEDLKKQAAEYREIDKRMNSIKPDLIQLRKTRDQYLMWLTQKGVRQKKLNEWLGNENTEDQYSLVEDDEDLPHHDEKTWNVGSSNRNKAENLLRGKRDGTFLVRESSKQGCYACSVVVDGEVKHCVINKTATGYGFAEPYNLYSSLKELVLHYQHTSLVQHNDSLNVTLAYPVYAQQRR

SMILES	IC50 [nM]
Cc1cc([C@@H](C)Oc2ccc(Cl)nc2NS(C)(=O)=O)c2oc(-c3cnn(C)c3)c(C)c(=O)c2c1 [Example 149A, N-[6-Chloro-3-[(1R)-1-[3,6-dimethyl-2-(1-methylpyrazol-4-yl)-4-oxo-chromen-8-yl]ethoxy]-2-pyridyl]methanesulfonamide]	< 500
Cc1cc([C@@H](C)Oc2ccc(Cl)nc2-c2noc(=O)[nH]2)c2oc(-c3ccc4c(c3)OC(F)(F)O4)c(C)c(=O)c2c1 [Example 46A, 3-[6-Chloro-3-[(1R)-1-[2-(2,2-difluoro-1,3-benzodioxol-5-yl)-3,6-dimethyl-4-oxo-chromen-8-yl]ethoxy]-2-pyridyl]-4H-1,2,4-oxadiazol-5-one]	< 500

target: T1, PI3Kα H1047R (Homo sapiens, UniProt P42336, H1047R); experiment: PI3Kα H1047R mutant in vitro cell based assay, MDA-MB-453 cells (AlphaLisa SureFire); settings: MDA-MB-453 cell line, 0% FBS, 3 hours treatment
T1 construct: The MDA-MB-453 (ATCC-HTB-131) cell line (PI3Kα H1047R); host or cells: MDA-MB-453
T1 sequence (P42336 whole entry H1047R): as the sequence (P42336 whole entry E545K) above, with K545E, H1047R counted along it
T1 sequence (P27986 whole entry partner): as the sequence (P27986 whole entry partner) above
In short: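 MDA-MB-453 cells (endogenous PI3Kα H1047R) were treated for 3 h in serum-free MEM containing 1 μg/mL insulin, with 10-point 1:3 dilutions in 0.3% DMSO. Lysates were read by AlphaLisa SureFire. IC50 came from a 4-parameter logistic fit of duplicate % inhibition, normalized to DMSO (max) and 1 μM GDC-0032 (min).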

SMILES	IC50 [nM]
CC(=O)Nc1ccc(-c2oc3c([C@@H](C)Oc4ccc(Cl)nc4C(N)=O)cc(C)cc3c(=O)c2C)cc1 [Example 58C, 3-[(1R)-1-[2-(4-Acetamidophenyl)-3,6-dimethyl-4-oxo-chromen-8-yl]ethoxy]-6-chloro-pyridine-2-carboxamide]	< 100
Cc1cc([C@@H](C)Oc2ccc(Cl)nc2-c2noc(=O)[nH]2)c2oc(-c3ccc4c(c3)OC(F)(F)O4)c(C)c(=O)c2c1 [Example 46A, 3-[6-Chloro-3-[(1R)-1-[2-(2,2-difluoro-1,3-benzodioxol-5-yl)-3,6-dimethyl-4-oxo-chromen-8-yl]ethoxy]-2-pyridyl]-4H-1,2,4-oxadiazol-5-one]	< 100
Cc1cc([C@@H](C)Oc2ccc(Br)nc2C(N)=O)c2oc(-c3ccc4nn(C)cc4c3)c(C)c(=O)c2c1 [Example 81C, 6-Bromo-3-[(1R)-1-[3,6-dimethyl-2-(2-methylindazol-5-yl)-4-oxo-chromen-8-yl]ethoxy]pyridine-2-carboxamide]	< 100
Cc1cc([C@@H](C)Oc2ccc(Cl)nc2C(N)=O)c2oc(-c3cc(F)c4nn(C)cc4c3)c(C)c(=O)c2c1 [Example 17B, 6-Chloro-3-[(1R)-1-[2-(7-fluoro-2-methyl-indazol-5-yl)-3,6-dimethyl-4-oxo-chromen-8-yl]ethoxy]pyridine-2-carboxamide]	< 100

Reference: patent publication US20240182460A1, “ALLOSTERIC CHROMENONE INHIBITORS OF PHOSPHOINOSITIDE 3-KINASE (PI3K) FOR THE TREATMENT OF DISEASE” (PETRA PHARMA CORPORATION, priority 2022, published 2024)
